Experimental data from ChEMBL document CHEMBL1201861, “Genomics of Drug Sensitity in Cancer screening data, Wellcome Trust Sanger Institute”.

Legend:
Assay in all cases: cells
Format in all cases: functional, cell-based, Homo sapiens
KARPAS-299 = tested on: KARPAS-299
Description: SANGER: Inhibition of human KARPAS-299 cell growth in a cell viability assay.

NCI-H69 = tested on: NCI-H69;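 also: growth inhibition of the cell line, read out with a cell viability assay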
Description: SANGER: Inhibition of human NCI-H69 cell growth in a cell viability assay.

MZ7-mel = tested on: MZ7-mel;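 also: growth inhibition of human MZ7-mel cells, measured by a cell viability assay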
Description: SANGER: Inhibition of human MZ7-mel cell growth in a cell viability assay.

SCC-15 = tested on: SCC-15;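 also: growth inhibition of SCC-15 cells, read out with a cell viability assay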
Description: SANGER: Inhibition of human SCC-15 cell growth in a cell viability assay.

NCI-H82 = tested on: NCI-H82;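 also: growth inhibition of NCI-H82 cells, measured with a cell viability readout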
Description: SANGER: Inhibition of human NCI-H82 cell growth in a cell viability assay.

HD-MY-Z = tested on: HD-MY-Z;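 also: growth inhibition of HD-MY-Z cells, read out with a cell viability assay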
Description: SANGER: Inhibition of human HD-MY-Z cell growth in a cell viability assay.

OVCAR-4 = tested on: OVCAR-4;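 also: growth inhibition of human OVCAR-4 cells, measured with a cell viability assay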
Description: SANGER: Inhibition of human OVCAR-4 cell growth in a cell viability assay.

ES5 = tested on: ES5;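 also: growth inhibition of human ES5 cells, read out by a cell viability assay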
Description: SANGER: Inhibition of human ES5 cell growth in a cell viability assay.

NCI-H446 = tested on: NCI-H446;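 also: growth inhibition of NCI-H446 cells determined by a cell viability assay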
Description: SANGER: Inhibition of human NCI-H446 cell growth in a cell viability assay.

MLMA = tested on: MLMA;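 also: growth inhibition of MLMA cells (human), determined through a cell viability readout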
Description: SANGER: Inhibition of human MLMA cell growth in a cell viability assay.

NMC-G1 = tested on: NMC-G1;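 also: growth inhibition of the NMC-G1 cell line, measured with a cell viability read-out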
Description: SANGER: Inhibition of human NMC-G1 cell growth in a cell viability assay.

D-263MG = tested on: D-263MG
Description: SANGER: Inhibition of human D-263MG cell growth in a cell viability assay.

NCI-H23 = tested on: NCI-H23;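 also: cell viability assay measuring growth inhibition of NCI-H23 cells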
Description: SANGER: Inhibition of human NCI-H23 cell growth in a cell viability assay.

NCI-H1648 = tested on: NCI-H1648;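 also: cell viability assay measuring inhibition of NCI-H1648 cell growth, from the Sanger screening data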
Description: SANGER: Inhibition of human NCI-H1648 cell growth in a cell viability assay.

ML-2 = tested on: ML-2;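 also: growth inhibition of ML-2 cells, measured with a cell viability readout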
Description: SANGER: Inhibition of human ML-2 cell growth in a cell viability assay.

VA-ES-BJ = tested on: VA-ES-BJ;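 also: growth inhibition of the VA-ES-BJ cell line, read out by a cell viability assay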
Description: SANGER: Inhibition of human VA-ES-BJ cell growth in a cell viability assay.

LS-1034 = tested on: LS-1034
Description: SANGER: Inhibition of human LS-1034 cell growth in a cell viability assay.

NB17 = tested on: NB17;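 also: growth inhibition of NB17 cells, read out with a cell viability assay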
Description: SANGER: Inhibition of human NB17 cell growth in a cell viability assay.

SW 954 = tested on: SW 954;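 also: growth inhibition of SW954 human cancer cells, read out as cell viability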
Description: SANGER: Inhibition of human SW954 cell growth in a cell viability assay.

TE-1 = tested on: TE-1;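 also: growth inhibition of the human TE-1 cell line, read out with a cell viability assay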
Description: SANGER: Inhibition of human TE-1 cell growth in a cell viability assay.

KP-N-YS = tested on: KP-N-YS;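 also: cell viability assay measuring inhibition of cell line growth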
Description: SANGER: Inhibition of human KP-N-YS cell growth in a cell viability assay.

Calu-6 = tested on: Calu-6;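 also: growth of human Calu-6 cells, read out by a cell viability assay, IC50 marking inhibition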
Description: SANGER: Inhibition of human Calu-6 cell growth in a cell viability assay.

LS-123 = tested on: LS-123
Description: SANGER: Inhibition of human LS-123 cell growth in a cell viability assay.

HCE-T = tested on: HCE-T;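 also: cell viability assay read-out, reporting inhibition of HCE-T cell growth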
Description: SANGER: Inhibition of human HCE-T cell growth in a cell viability assay.

697 = tested on: 697
Description: SANGER: Inhibition of human 697 cell growth in a cell viability assay.

Becker = tested on: Becker;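 also: growth inhibition of Becker cells, read out with a cell viability assay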
Description: SANGER: Inhibition of human Becker cell growth in a cell viability assay.

JVM-2 = tested on: JVM-2;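 also: growth inhibition of JVM-2 cells determined by a cell viability assay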
Description: SANGER: Inhibition of human JVM-2 cell growth in a cell viability assay.

BV-173 = tested on: BV-173
Description: SANGER: Inhibition of human BV-173 cell growth in a cell viability assay.

COLO-684 = tested on: COLO-684
Description: SANGER: Inhibition of human COLO-684 cell growth in a cell viability assay.

ES8 = tested on: ES8;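 also: growth inhibition of human ES8 cells, read out with a cell viability assay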
Description: SANGER: Inhibition of human ES8 cell growth in a cell viability assay.

NCI-H1650 = tested on: NCI-H1650;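 also: growth inhibition of human NCI-H1650 cells measured by a cell viability assay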
Description: SANGER: Inhibition of human NCI-H1650 cell growth in a cell viability assay.

EW-1 = tested on: EW-1;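 also: growth inhibition of the human EW-1 cell line, read out by a cell viability assay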
Description: SANGER: Inhibition of human EW-1 cell growth in a cell viability assay.

OCI-AML2 = tested on: OCI-AML2;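 also: growth inhibition of OCI-AML2 cells, read out with a cell viability assay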
Description: SANGER: Inhibition of human OCI-AML2 cell growth in a cell viability assay.

LB2518-MEL = tested on: LB2518-MEL;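 also: growth inhibition of human LB2518-MEL cells, measured with a cell viability assay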
Description: SANGER: Inhibition of human LB2518-MEL cell growth in a cell viability assay.

MHH-NB-11 = tested on: MHH-NB-11;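 also: growth inhibition of human MHH-NB-11 cells, read out by a cell viability assay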
Description: SANGER: Inhibition of human MHH-NB-11 cell growth in a cell viability assay.

LAMA-84 = tested on: LAMA-84;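 also: growth inhibition of LAMA-84 cells, read out with a cell viability assay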
Description: SANGER: Inhibition of human LAMA-84 cell growth in a cell viability assay.

LU-139 = tested on: LU-139
Description: SANGER: Inhibition of human LU-139 cell growth in a cell viability assay.

HH = tested on: HH
Description: SANGER: Inhibition of human HH cell growth in a cell viability assay.

KMOE-2 = tested on: KMOE-2;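 also: growth inhibition of human KMOE-2 cells, read out with a cell viability assay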
Description: SANGER: Inhibition of human KMOE-2 cell growth in a cell viability assay.

LXF-289 cell line = tested on: LXF-289 cell line
Description: SANGER: Inhibition of human LXF-289 cell growth in a cell viability assay.

KNS-81-FD = tested on: KNS-81-FD;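 also: growth inhibition of KNS-81-FD cells, read out with a cell viability assay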
Description: SANGER: Inhibition of human KNS-81-FD cell growth in a cell viability assay.

A704 = tested on: A704;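 also: growth inhibition of human A704 cells, read out with a cell viability assay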
Description: SANGER: Inhibition of human A704 cell growth in a cell viability assay.

KURAMOCHI = tested on: KURAMOCHI;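 also: growth inhibition of KURAMOCHI cells, read out with a cell viability assay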
Description: SANGER: Inhibition of human KURAMOCHI cell growth in a cell viability assay.

NCI-H1581 = tested on: NCI-H1581;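 also: cell growth inhibition read out by a viability assay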
Description: SANGER: Inhibition of human NCI-H1581 cell growth in a cell viability assay.

no-11 = tested on: no-11;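 also: growth inhibition of human NO-11 cells, read out with a cell viability assay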
Description: SANGER: Inhibition of human no-11 cell growth in a cell viability assay.

ES3 = tested on: ES3;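 also: growth inhibition of ES3 cells, read out with a cell viability assay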
Description: SANGER: Inhibition of human ES3 cell growth in a cell viability assay.

BB30-HNC = tested on: BB30-HNC;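 also: growth inhibition of the cultured cell line, read out by a cell viability assay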
Description: SANGER: Inhibition of human BB30-HNC cell growth in a cell viability assay.

NB10 = tested on: NB10;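 also: growth inhibition of NB10 cells, read out by a cell viability assay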
Description: SANGER: Inhibition of human NB10 cell growth in a cell viability assay.

CO[C@H]1C[C@@H]2CC[C@@H](C)[C@@](O)(O2)C(=O)C(=O)N2CCCC[C@H]2C(=O)O[C@H]([C@H](C)C[C@@H]2CC[C@@H](OC(=O)C(C)(CO)CO)[C@H](OC)C2)CC(=O)[C@H](C)/C=C(\C)[C@@H](O)[C@@H](OC)C(=O)[C@H](C)C[C@H](C)/C=C/C=C/C=C/1C [TEMSIROLIMUS]
IC50 (KARPAS-299; Homo sapiens, KARPAS-299): > 0.2 µM | IC50 (NCI-H69; Homo sapiens, NCI-H69): > 0.2 µM | IC50 (MZ7-mel; Homo sapiens, MZ7-mel): 0.161 µM | IC50 (SCC-15; Homo sapiens, SCC-15): 0.128 µM | IC50 (NCI-H82; Homo sapiens, NCI-H82): 0.0288 µM | IC50 (HD-MY-Z; Homo sapiens, HD-MY-Z): 0.0216 µM | IC50 (OVCAR-4; Homo sapiens, OVCAR-4): > 0.2 µM | IC50 (ES5; Homo sapiens, ES5): 0.0614 µM | IC50 (NCI-H446; Homo sapiens, NCI-H446): > 0.2 µM | IC50 (MLMA; Homo sapiens, MLMA): 0.00331 µM | IC50 (NMC-G1; Homo sapiens, NMC-G1): > 0.2 µM | IC50 (D-263MG; Homo sapiens, D-263MG): 0.159 µM | IC50 (NCI-H23; Homo sapiens, NCI-H23): > 0.2 µM | IC50 (NCI-H1648; Homo sapiens, NCI-H1648): 0.182 µM | IC50 (ML-2; Homo sapiens, ML-2): > 0.2 µM | IC50 (VA-ES-BJ; Homo sapiens, VA-ES-BJ): 0.0059 µM | IC50 (LS-1034; Homo sapiens, LS-1034): > 0.2 µM | IC50 (NB17; Homo sapiens, NB17): > 0.2 µM | IC50 (SW 954; Homo sapiens, SW 954): > 0.2 µM | IC50 (TE-1; Homo sapiens, TE-1): > 0.2 µM | IC50 (KP-N-YS; Homo sapiens, KP-N-YS): > 0.2 µM | IC50 (Calu-6; Homo sapiens, Calu-6): > 0.2 µM | IC50 (LS-123; Homo sapiens, LS-123): > 0.2 µM | IC50 (HCE-T; Homo sapiens, HCE-T): 0.0492 µM | IC50 (697; Homo sapiens): 0.0017 µM | IC50 (Becker; Homo sapiens, Becker): 0.0799 µM | IC50 (JVM-2; Homo sapiens, JVM-2): > 0.2 µM | IC50 (BV-173; Homo sapiens, BV-173): 0.0438 µM | IC50 (COLO-684; Homo sapiens, COLO-684): 0.0133 µM | IC50 (ES8; Homo sapiens, ES8): 0.00527 µM | IC50 (NCI-H1650; Homo sapiens, NCI-H1650): > 0.2 µM | IC50 (EW-1; Homo sapiens, EW-1): > 0.2 µM | IC50 (OCI-AML2; Homo sapiens, OCI-AML2): > 0.2 µM | IC50 (LB2518-MEL; Homo sapiens, LB2518-MEL): > 0.2 µM | IC50 (MHH-NB-11; Homo sapiens, MHH-NB-11): > 0.2 µM | IC50 (LAMA-84; Homo sapiens, LAMA-84): 0.00403 µM | IC50 (LU-139; Homo sapiens, LU-139): 0.0533 µM | IC50 (HH; Homo sapiens, HH): 0.000664 µM | IC50 (KMOE-2; Homo sapiens, KMOE-2): > 0.2 µM | IC50 (LXF-289 cell line; Homo sapiens, LXF-289): 0.148 µM | IC50 (KNS-81-FD; Homo sapiens, KNS-81-FD): 0.138 µM | IC50 (A704; Homo sapiens, A704): > 0.2 µM | IC50 (KURAMOCHI; Homo sapiens, KURAMOCHI): > 0.2 µM | IC50 (NCI-H1581; Homo sapiens, NCI-H1581): > 0.2 µM | IC50 (no-11; Homo sapiens): > 0.2 µM | IC50 (ES3; Homo sapiens, ES3): 0.0851 µM | IC50 (BB30-HNC; Homo sapiens, BB30-HNC): > 0.2 µM | IC50 (NB10; Homo sapiens, NB10): > 0.2 µM

CISPLATIN
IC50 (KARPAS-299; karpas-299): 172 µM | IC50 (NCI-H69; nci-h69): 231 µM | IC50 (MZ7-mel; mz7-mel): 6.68 µM | IC50 (SCC-15; scc-15): 28.9 µM | IC50 (NCI-H82; nci-h82): 74.9 µM | IC50 (HD-MY-Z; hd-my-z): 18 µM | IC50 (OVCAR-4; ovcar-4): 22.3 µM | IC50 (ES5; es5): 3.32 µM | IC50 (NCI-H446; nci-h446): 37.4 µM | IC50 (MLMA; mlma): 19.2 µM | IC50 (NMC-G1; nmc-g1): 14.5 µM | IC50 (D-263MG; d-263mg): 6.66 µM | IC50 (NCI-H23; nci-h23): 40 µM | IC50 (NCI-H1648; nci-h1648): 69.7 µM | IC50 (ML-2; ml-2): 163 µM | IC50 (VA-ES-BJ; va-es-bj): 2.45 µM | IC50 (LS-1034; ls-1034): 22.7 µM | IC50 (NB17; nb17): 69.4 µM | IC50 (SW 954; sw 954): 11.1 µM | IC50 (TE-1; te-1): 38.5 µM | IC50 (KP-N-YS; kp-n-ys): 811 µM | IC50 (Calu-6; calu-6): 75.8 µM | IC50 (LS-123; ls-123): 491 µM | IC50 (HCE-T; hce-t): 7.9 µM | IC50 697: 1.89 µM | IC50 (Becker; becker): 17.8 µM | IC50 (JVM-2; jvm-2): 568 µM | IC50 (BV-173; bv-173): 42.1 µM | IC50 (COLO-684; colo-684): 29.1 µM | IC50 (ES8; es8): 3.43 µM | IC50 (NCI-H1650; nci-h1650): 19 µM | IC50 (EW-1; ew-1): 8.48 µM | IC50 (OCI-AML2; oci-aml2): 15.3 µM | IC50 (LB2518-MEL; lb2518-mel): 116 µM | IC50 (MHH-NB-11; mhh-nb-11): 4.83 µM | IC50 (LAMA-84; lama-84): 10.8 µM | IC50 (LU-139; lu-139): 95.6 µM | IC50 (HH; hh): 22.5 µM | IC50 (KMOE-2; kmoe-2): 25.2 µM | IC50 (LXF-289 cell line; lxf-289): 52.7 µM | IC50 (KNS-81-FD; kns-81-fd): 535 µM | IC50 (A704; a704): 115 µM | IC50 (KURAMOCHI; kuramochi): 159 µM | IC50 (NCI-H1581; nci-h1581): 12.2 µM | IC50 (no-11): 15.6 µM | IC50 (ES3; es3): 0.863 µM | IC50 (BB30-HNC; bb30-hnc): 24.5 µM | IC50 (NB10; nb10): 11.5 µM
